Source: patent US7947675B2, “Trifluoromethylbenzamide derivatives and therapeutic uses thereof” (Merck Patent GmbH, priority 2005, dated 2011)

Key:
[1] = biological target: T1, CETP (cholesteryl ester transfer protein) (Homo sapiens, UniProt P11597); assay: In vitro screening test: inhibitory effect on the activity of CETP (3H-cholesterol ester transfer from HDL to biotinylated LDL, SPA); assay type: biochemical; settings: incubation 24 hours at 37° C., relative to control (CETP+solvent)
T1 sequence (P11597 18-493): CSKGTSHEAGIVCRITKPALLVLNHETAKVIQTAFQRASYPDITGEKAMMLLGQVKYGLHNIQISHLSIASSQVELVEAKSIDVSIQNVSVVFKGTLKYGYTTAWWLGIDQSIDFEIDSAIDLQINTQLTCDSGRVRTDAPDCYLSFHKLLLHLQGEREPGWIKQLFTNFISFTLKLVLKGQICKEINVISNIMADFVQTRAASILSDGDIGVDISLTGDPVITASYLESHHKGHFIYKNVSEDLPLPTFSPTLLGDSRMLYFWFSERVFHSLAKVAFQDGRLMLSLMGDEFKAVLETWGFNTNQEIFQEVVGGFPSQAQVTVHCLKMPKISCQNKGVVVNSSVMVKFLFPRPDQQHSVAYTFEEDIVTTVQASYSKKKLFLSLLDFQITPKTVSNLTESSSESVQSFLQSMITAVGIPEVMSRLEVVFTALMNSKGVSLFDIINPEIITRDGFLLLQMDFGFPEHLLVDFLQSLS
Description: Measurement of an inhibitory effect on the activity of CETP (cholesteryl ester transfer protein)
The measurement of the CETP activity is performed by measuring the transfer of ^3H-cholesterol ester from the HDLs to the biotinylated LDLs.
The transfer is measured after incubation for 24 hours in the presence of donor (HDL), acceptor (LDL) and CETP, with or without inhibitor. The reaction is stopped and the transfer measured by addition of SPA streptavidin beads (Amersham).
The increase in scintillation is proportional to the transfer of ^3H-cholesterol ester via CETP to the LDLs.
To perform the test, 10 μl of ^3H-cholesterol ester HDL, 10 μl of biotinylated LDL and 10 μl of HEPES buffer (50 mM HEPES/[…]/0.1% BSA/0.05% NaN3, pH 7.4) are mixed with 10 μl of CETP (1 mg/ml) and the test product (1 μl of the stock solution at 10 mM in DMSO) or 1 μl of DMSO alone in a 96-well microplate (Costar).
Screening is performed at a final concentration of 10 μM per well in 0.1% of solvent.
The plates are then covered with a film, shaken and incubated under a humid atmosphere at 37° C. for 24 hours.
200 μl of SPA-streptavidin beads solution (Amersham, TRKQ 7005) are added and the radioactivity reading is taken 1 hour later on a scintillation counter (Top Count, Packard) with a reading time of 0.5 minute.
The inhibition results are expressed relative to the control test (CETP+solvent).
The IC 50 values are determined and expressed in μM.

IC50 [1] [nM] | melting point [°C] | SMILES
930 | – | Nc1cc(C(F)(F)F)cc(C(=O)Nc2ccc(Cl)c(Cl)c2)c1N1CCCCC1 [Example 2, 3-Amino-N-(3,4-dichlorophenyl)-2-piperid-1-yl-5-trifluoromethylbenzamide]
– | 175 | N#Cc1cc(C(F)(F)F)cc(C(=O)Nc2ccc(Cl)c(Cl)c2)c1N1CCCCC1 [Example 4, 3-Cyano-N-(3,4-dichlorophenyl)-2-piperid-1-yl-5-trifluoromethylbenzamide]
1450 | – | O=C(Nc1ccc(Cl)c(Cl)c1)c1cc(C(F)(F)F)cc([N+](=O)[O-])c1N1CCCCC1 [Example 1, N-(3,4-Dichlorophenyl)-3-nitro-2-piperid-1-yl-5-trifluoromethylbenzamide]
750 | – | CC1CCN(c2c(Cl)cc(C(F)(F)F)cc2C(=O)Nc2ccc(Cl)c(Cl)c2)CC1 [Example 6, 3-Chloro-N-(3,4-dichlorophenyl)-2-(4-methylpiperid-1-yl)-5-trifluoromethylbenzamide]
890 | – | O=C(Nc1ccc(Cl)c(Cl)c1)c1cc(C(F)(F)F)cc(Br)c1N1CCCCC1 [Example 3, 3-Bromo-N-(3,4-dichlorophenyl)-2-piperid-1-yl-5-trifluoromethylbenzamide]
